Assay results published in PubChem BioAssay (NCI).
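1) Cells in 96-well plates. 2) Compound, 48 h, 5 concentrations. 3) Linear interpolation between surrounding doses. 4) Unreached endpoint = highest concentration. The concentration for 50% growth inhibition is given as GI50. TGI: concentration producing complete growth inhibition.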

Assays:
Test in all cases: DTP human tumour cell line panel, 48 h
CCRF-CEM leukemia = test system: CCRF-CEM leukemia
DU-145 prostate = test system: DU-145 prostate
IGROV1 ovarian = test system: IGROV1 ovarian
MCF7 breast = test system: MCF7 breast
MDA-MB-231 breast = test system: MDA-MB-231 breast
OVCAR-3 ovarian = test system: OVCAR-3 ovarian
SF-268 CNS = test system: SF-268 CNS
SF-295 CNS = test system: SF-295 CNS
SK-MEL-2 melanoma = test system: SK-MEL-2 melanoma
SNB-19 CNS = test system: SNB-19 CNS

Compound	GI50 (CCRF-CEM leukemia)	TGI (CCRF-CEM leukemia)	GI50 (DU-145 prostate)	TGI (DU-145 prostate)	GI50 (IGROV1 ovarian)	TGI (IGROV1 ovarian)	GI50 (MCF7 breast)	TGI (MCF7 breast)	GI50 (MDA-MB-231 breast)	TGI (MDA-MB-231 breast)	GI50 (OVCAR-3 ovarian)	TGI (OVCAR-3 ovarian)	GI50 (SF-268 CNS)	TGI (SF-268 CNS)	GI50 (SF-295 CNS)	TGI (SF-295 CNS)	GI50 (SK-MEL-2 melanoma)	TGI (SK-MEL-2 melanoma)	GI50 (SNB-19 CNS)	TGI (SNB-19 CNS)
C=C1C(=O)O[C@H]2[C@H]1CC/C(COC(=O)c1cc3ccccc3s1)=C\CC[C@@]1(C)O[C@@H]21	0.403 µM	2.45 µM	1.05 µM	2.3 µM	1.76 µM	3.58 µM	0.389 µM	2.02 µM	1.97 µM	4.35 µM	0.446 µM	1.66 µM	1.54 µM	3.24 µM	3.33 µM	12.8 µM	1.75 µM	3.52 µM	2.09 µM	4.97 µM
O=c1[nH]c(=O)n(C2OC(CO)C(O)C(O)C2O)cc1F (centres undefined)		> 100 µM		> 100 µM		> 100 µM		> 100 µM		> 100 µM		> 100 µM		> 100 µM		> 100 µM		> 100 µM		> 100 µM
Cc1nc(-c2ccccc2)c(-c2ccccc2)s1		40.3 µM		> 100 µM		95.3 µM		62.3 µM		69.6 µM		87.4 µM		78.6 µM		> 100 µM		32.8 µM		> 100 µM
C=C(C)C1CCC2(C(=O)O)CCC3(C)C(CCC4C5(C)CCC(OC(=O)NCc6ccccc6)C(C)(C)C5CCC43C)C12 (centres undefined)	2.36 µM	> 100 µM	4.14 µM	35.2 µM		> 100 µM	4.08 µM	> 100 µM	5.69 µM	54.3 µM	2.04 µM	13.9 µM	4.84 µM	> 100 µM	3.15 µM	> 100 µM	5.46 µM	> 100 µM	25.3 µM	> 100 µM
CCOC(=O)c1c(C)nc2c(c1N)/C(=C/c1ccc(OC)cc1)C(=O)N2Cc1ccc(F)cc1	0.109 µM	0.514 µM	0.279 µM	1.12 µM	0.235 µM	0.733 µM	0.195 µM	1.51 µM	0.236 µM	0.76 µM	0.109 µM	0.51 µM	0.285 µM	1.21 µM	1.37 µM	3.59 µM	0.238 µM	0.729 µM	0.532 µM	1.87 µM
Cn1c2ccccc2c2c3[nH]c(=O)[nH]c(=O)c3c3c4ccccc4n(C)c3c21	3.73 µM	> 100 µM	1.51 µM	> 100 µM	2.14 µM	12 µM	1.9 µM	> 100 µM	5.41 µM	31.4 µM	2.38 µM	7 µM	3.12 µM	15.6 µM	10.5 µM	27.8 µM	4.5 µM	19.7 µM	3.8 µM	21.4 µM
O=C(/C=C\n1cnc(-c2cc(C(F)(F)F)cc(C(F)(F)F)c2)n1)NNc1cnccn1	0.106 µM	> 100 µM	0.271 µM	12.6 µM	0.223 µM	14.8 µM	0.0329 µM	11.5 µM	0.0577 µM	14.8 µM	0.0574 µM	4.03 µM	0.0577 µM	10.6 µM	0.0534 µM	11.2 µM	0.0729 µM	2.84 µM	0.142 µM	13.4 µM
